Laboratory results from patent US8318711B2, “Use of diacetyl trimer as an aromatic and flavouring substance” (Symrise AG, priority 2004, dated 2012).
Blank lines part the entries; values can stand above or below the compound they belong to.

Experiments:
[1] = Tasting in sweet/salty solution (flavour profile by testers); type: in vivo; conditions: 1 ppm in aqueous 5% sucrose or 0.5% sodium chloride solution, 9 testers; for flavour profile: fatty (oily): scale 1 (action scarcely perceptible) to 9 (action highly perceptible)
Experimental: The 2,5-diacetyl-3a,5,6,6a-tetrahydro-6a-hydroxy-2,3a,5-trimethylfuro[2,3-d]-1,3-dioxole from Example 1 (1 ppm diacetyl trimer in aqueous 5 wt. % sucrose or 0.5% sodium chloride solution) was investigated for its flavouring action by 9 testers. The actions found were evaluated with a scale of from 1 (action scarcely perceptible) to 9 (action highly perceptible).
For comparison, a flavour profile of diacetyl (1 ppm in aq. 5% sucrose or 0.5% sodium chloride solution) was produced under otherwise identical conditions: fatty (oily) (5), cream (5), butter (7), milk (4), condensed milk (4), fruity (2), cheesy (2), sweet (4), vanillin (2), intensity (7), impact (7), fullness (7), adhesive (5), soft (6)

[2] = Stability of diacetyl trimer on heating; type: physicochemical; conditions: heated at 60° C. to 100° C. for 10 minutes

- decomposition on heating [2]: does not decompose
Compound: CC(=O)C1(C)CC2(O)OC(C)(C(C)=O)OC2(C)O1 (racemic) [diacetyl trimer, 2,5-diacetyl-3a,5,6,6a-tetrahydro-6a-hydroxy-2,3a,5-trimethylfuro[2,3-d]-1,3-dioxole]
- flavour profile: fatty (oily) [1]: 7
- flavour profile: adhesive ([1]; scale 1 to 9): 8
- flavour profile: butter ([1]; scale 1 to 9): 8
- flavour profile: caramel ([1]; scale 1 to 9): 4
- flavour profile: cream ([1]; scale 1 to 9): 6
- flavour profile: fresh cheese/quark ([1]; scale 1 to 9): 4
- flavour profile: fullness ([1]; scale 1 to 9): 7
- flavour profile: impact ([1]; scale 1 to 9): 7
- flavour profile: intensity ([1]; scale 1 to 9): 6
- flavour profile: soft ([1]; scale 1 to 9): 6
- flavour profile: sweet ([1]; scale 1 to 9): 6
- flavour profile: toffee ([1]; scale 1 to 9): 6
- flavour profile: vanillin ([1]; scale 1 to 9): 3

Compound: CC(=O)C(C)=O [diacetyl, 2,3-butanedione]
- flavour profile: fatty (oily) [1]: 5
- flavour profile: adhesive ([1]; scale 1 to 9): 5
- flavour profile: butter ([1]; scale 1 to 9): 7
- flavour profile: cheesy ([1]; scale 1 to 9): 2
- flavour profile: condensed milk ([1]; scale 1 to 9): 4
- flavour profile: cream ([1]; scale 1 to 9): 5
- flavour profile: fruity ([1]; scale 1 to 9): 2
- flavour profile: fullness ([1]; scale 1 to 9): 7
- flavour profile: impact ([1]; scale 1 to 9): 7
- flavour profile: intensity ([1]; scale 1 to 9): 7
- flavour profile: milk ([1]; scale 1 to 9): 4
- flavour profile: soft ([1]; scale 1 to 9): 6
- flavour profile: sweet ([1]; scale 1 to 9): 4
- flavour profile: vanillin ([1]; scale 1 to 9): 2
